Laboratory results reported in ChEMBL document CHEMBL1201862, “PubChem BioAssay data set” (2004).
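Exposure lasted 48 hours, with cells grown in 96-well plates and compounds tested at five concentrations. The concentration for 50% growth inhibition is given as GI50.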 Active and inactive are the calls of the source. No stated cut-off is given here; in the data, active = GI50 up to about 1.1 µM and inactive = higher.

Legend:
Test in all cases: inhibition of tumour cell growth, NCI panel, 48 h
HCT-15 = tested on: HCT-15
SK-OV-3 = tested on: SK-OV-3
SW-620 = tested on: SW-620
NCI-H460 = tested on: NCI-H460
MOLT-4 = tested on: MOLT-4
OVCAR-5 = tested on: OVCAR-5
RXF 393 = tested on: RXF 393
SR = tested on: SR
SNB-19 = tested on: SNB-19
OVCAR-3 = tested on: OVCAR-3
IGROV-1 = tested on: IGROV-1
M14 = tested on: M14
ACHN = tested on: ACHN
MDA-N = tested on: MDA-N
HL-60 = tested on: HL-60
MDA-MB-231 = tested on: MDA-MB-231
NCI-H522 = tested on: NCI-H522
COLO 205 = tested on: COLO 205
SK-MEL-2 = tested on: SK-MEL-2
MCF7 = tested on: MCF7

| Compound | GI50 (HCT-15) [µM] | GI50 (SK-OV-3) | GI50 (SW-620) | GI50 (NCI-H460) | GI50 (MOLT-4) | GI50 (OVCAR-5) | GI50 (RXF 393) | GI50 (SR) | GI50 (SNB-19) | GI50 (OVCAR-3) | GI50 (IGROV-1) | GI50 (M14) | GI50 (ACHN) | GI50 (MDA-N) | GI50 (HL-60) | GI50 (MDA-MB-231) | GI50 (NCI-H522) | GI50 (COLO 205) | GI50 (SK-MEL-2) | GI50 (MCF7) |
| --- | --- | --- | --- | --- | --- | --- | --- | --- | --- | --- | --- | --- | --- | --- | --- | --- | --- | --- | --- | --- |
| Cc1ccc2c(O)c3c(cc2c1)C(=O)c1c2c(cc(O)c1C3=O)C1(C)OC(O2)C(O)C(N(C)C)C1O (stereo not given) | 0.614 | 1.09 µM (active) | 1.02 µM (active) | 0.109 µM (active) | 0.124 µM (active) | 1.97 µM (inactive) | 1.21 µM (inactive) | 0.0452 µM (active) | 1.17 µM (inactive) | 0.794 µM (active) | 0.912 µM (active) | 1.56 µM (inactive) | 0.605 µM (active) | 1.63 µM (inactive) | 0.155 µM (active) | 1.33 µM (inactive) | 1.22 µM (inactive) | 0.91 µM (active) | 1.85 µM (inactive) | 0.287 µM (active) |
| CCNC1=C(NC(=O)CC)C(=O)c2ccccc2C1=O | 64.3 | > 100 µM (inactive) | 60.4 µM (inactive) | > 100 µM (inactive) | > 100 µM (inactive) | > 100 µM (inactive) | 48.1 µM (inactive) | > 100 µM (inactive) | > 100 µM (inactive) | 32.1 µM (inactive) | > 100 µM (inactive) | 31.7 µM (inactive) | > 100 µM (inactive) | > 100 µM (inactive) | 74.8 µM (inactive) | > 100 µM (inactive) | 46.1 µM (inactive) | 46.5 µM (inactive) |  | > 100 µM (inactive) |
| CN(N=O)C(=O)Nc1ccc(C(=O)O)cc1 | > 100 | > 100 µM (inactive) | > 100 µM (inactive) | > 100 µM (inactive) | > 100 µM (inactive) | > 100 µM (inactive) | > 100 µM (inactive) | > 100 µM (inactive) | > 100 µM (inactive) | > 100 µM (inactive) | > 100 µM (inactive) | > 100 µM (inactive) | > 100 µM (inactive) | > 100 µM (inactive) | > 100 µM (inactive) | > 100 µM (inactive) | > 100 µM (inactive) | > 100 µM (inactive) | > 100 µM (inactive) | > 100 µM (inactive) |
| Cc1ccnc(NC(NC(=O)c2ccccc2)(C(F)(F)F)C(F)(F)F)c1 | > 100 | > 100 µM (inactive) | > 100 µM (inactive) |  | > 100 µM (inactive) | > 100 µM (inactive) | > 100 µM (inactive) | 41.1 µM (inactive) | > 100 µM (inactive) | > 100 µM (inactive) | > 100 µM (inactive) | > 100 µM (inactive) | > 100 µM (inactive) | > 100 µM (inactive) | > 100 µM (inactive) | > 100 µM (inactive) | > 100 µM (inactive) | > 100 µM (inactive) | > 100 µM (inactive) | > 100 µM (inactive) |
| CCOC(=O)C1=NN(c2ccc([N+](=O)[O-])cc2)[C@@]2(C)C[C@]3(c4ccccc4)N(c4ccc([N+](=O)[O-])cc4)N=C(C(=O)OCC)N3c3ccccc3N12 | > 100 | > 100 µM (inactive) | > 100 µM (inactive) |  | > 100 µM (inactive) | > 100 µM (inactive) | > 100 µM (inactive) | > 100 µM (inactive) | > 100 µM (inactive) | > 100 µM (inactive) | > 100 µM (inactive) | 53.2 µM (inactive) | > 100 µM (inactive) | > 100 µM (inactive) | > 100 µM (inactive) | 4.51 µM (inactive) | > 100 µM (inactive) | > 100 µM (inactive) | > 100 µM (inactive) | > 100 µM (inactive) |
| COc1ccc2c(c1)nc1n2C(c2c(F)cccc2F)SC1 (stereo not given) | 35.2 | 40.8 µM (inactive) | 60.5 µM (inactive) | 39.4 µM (inactive) | 35.2 µM (inactive) | > 100 µM (inactive) | 53.7 µM (inactive) | 13.5 µM (inactive) | 21.4 µM (inactive) | 62.8 µM (inactive) | 47.5 µM (inactive) | 56.9 µM (inactive) | > 100 µM (inactive) | 40 µM (inactive) | 27.9 µM (inactive) | > 100 µM (inactive) |  | 40.6 µM (inactive) | 31.6 µM (inactive) | 38.3 µM (inactive) |
| O=C(CCCn1ccnc1[N+](=O)[O-])NCCn1cncc1[N+](=O)[O-] | > 100 | > 100 µM (inactive) | > 100 µM (inactive) | > 100 µM (inactive) | > 100 µM (inactive) | > 100 µM (inactive) | > 100 µM (inactive) | > 100 µM (inactive) |  | > 100 µM (inactive) | > 100 µM (inactive) | > 100 µM (inactive) | > 100 µM (inactive) | > 100 µM (inactive) | > 100 µM (inactive) | > 100 µM (inactive) | > 100 µM (inactive) | > 100 µM (inactive) | > 100 µM (inactive) | > 100 µM (inactive) |
